Where two headings read alike, the source gives them in different places.
Assays:
Calmodulin (CaM) = molecular target: T1, Calmodulin (CaM) (Homo sapiens, UniProt P0DP23); assay: BSI stop-flow label-free homogeneous binding to Calmodulin; details: for Kd: 5 μM CaM, 12.5-100 μM Ca^2+, pH 7.5, 25° C.
T1 construct: purchased Sigma, St. Louis, Mo

Calmodulin = Calmodulin (Homo sapiens, UniProt P0DP23); details: read-out: published Kd Calmodulin-calcium ion; cited from earlier work

control: change in signal above that observed in the absence of excess EGTA (Calmodulin (CaM); 5 μM CaM and 100 μM Ca^2+, both with excess EGTA (400 μM)): < 3%
Kd (Calmodulin (CaM); read-out: Kd CaM-Ca^2+ from kinetic analysis (single exponential, least squares)): 3.36 µM
Kd (Calmodulin (CaM); read-out: Kd CaM-Ca^2+ from steady-state values, Prism software): 17.8 µM
SMILES: [Ca+2] [Ca^2+]
Kd (Calmodulin): 1 to 10 µM

Source: patent US7835013B2, “Interferometric detection system and method” (Vanderbilt University, priority 2007, dated 2010)
